In PMC4667193 (Scientific Reports, 2015):

Experiments:
[1] = test system: rat primary hippocampal cell culture; assay: total [^3H]inositol phosphate accumulation in hippocampal cells; assay type: cell-based; conditions: 10^−8 to 10^−3 M
Procedure: Hippocampal cells (1 × 10^6 cells/well) were allowed to equilibrate for 10 minutes with a nutrient solution of the following composition (mM): NaCl 157.00; KCl 5.60; CaCl2 0.27; MgCl2 3.00; NaHCO3 1.80; glucose 5.50 (pH 7.0–7.2) at 37 °C under constant shaking. Cells were incubated with 5 μCi of myo[^3H]inositol (specific activity 18.0 Ci/mmol) for 80 minutes, and lithium chloride (10 mM) for additional 30 minutes. Afterwards, the cells were incubated in the absence (basal level) and in the presence of carbachol (positive control) and AEME (10^−8 to 10^−3 M) for 10 minutes. Cells were removed from the plate using a 0.1 M NaOH solution and washed three times with nutrient solution, transferred to 2 mL of methanol:chloroform (2:1 v-v) at 4 °C and homogenized with a Ultra-Turrax T25 homogenizer at 9500 rpm. Chloroform (0.62 mL) and H2O (0.93 mL) were added to the homogenate, and the solution was centrifuged for 5 minutes at 1,000× g to separate aqueous and organic phases. Total [^3H]inositol phosphate was measured as previously described by Ascoli et al.[45] with slight modification. The aqueous layer was neutralized with 0.1 M HCl and then mixed with 1 mL anion-exchange resin (Dowex AG-X8, formate form, 200–400 mesh), allowed to equilibrate for 30 minutes at room temperature, under agitation, and centrifugated at 1,000× g, for 5 minutes at 4 °C. The resin was then washed sequentially, with 10 mM myo-inositol (2 mL) and 5 mM sodium tetraborate/60 mM sodium formate (2 mL). The resin was incubated for 30 minutes at room temperature with 2 mL of 0.1 M formic acid/1 M ammonium formate). The total [^3H]inositol phosphate was eluted and placed in scintillation vials containing OptiPhase HiSafe 3. The amount of radioactivity was determined in scintillation β-counter (LS 6500 IC, Beckman). Total [^3H]inositol phosphate was expressed as percentage above basal level.

Rat M2 mAChR = biological target: T1, Rat M2 mAChR (Rattus norvegicus, UniProt P10980); assay: calcium mobilization assay in CHO cells (Gqi5); assay type: cell-based; conditions: rat M2, 100 μM AEME on ACh curve
T1 construct: host or cells: CHO (CHO-K1) cells
T1 sequence (P10980 1-466): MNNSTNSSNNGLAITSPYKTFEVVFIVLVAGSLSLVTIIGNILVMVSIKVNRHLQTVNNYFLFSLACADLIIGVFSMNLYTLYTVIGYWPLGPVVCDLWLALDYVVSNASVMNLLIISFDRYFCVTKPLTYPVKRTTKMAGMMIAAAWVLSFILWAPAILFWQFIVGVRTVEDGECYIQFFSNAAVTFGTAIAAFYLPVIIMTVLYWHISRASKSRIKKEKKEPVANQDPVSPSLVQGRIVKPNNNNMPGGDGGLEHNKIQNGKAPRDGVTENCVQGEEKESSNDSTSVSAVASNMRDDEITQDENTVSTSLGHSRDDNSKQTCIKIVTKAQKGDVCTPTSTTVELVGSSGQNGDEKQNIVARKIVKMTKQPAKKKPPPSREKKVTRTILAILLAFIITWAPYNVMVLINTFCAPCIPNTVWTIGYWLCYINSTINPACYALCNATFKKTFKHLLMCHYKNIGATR
Procedure: (§1) Chinese hamster ovary (CHO) cells individually and stably expressing individual rat mAChRs (rM1 to rM5 mAChRs) were purchased from the American Type Culture Collection (ATCC) and cultured according to ATCC recommendations. To generate stable rM2 and rM4 cell lines for use in calcium mobilization assays, rM2 and rM4-expressing cells were stably transfected with a chimeric G protein (Gqi5) using Lipofectamine 2000 (Invitrogen). rM2 and rM4 cells were grown in Ham’s F-12 medium containing 10% heat-inactivated fetal bovine serum (FBS), 2 mM GlutaMAX (Gibco®), 20 mM HEPES, 500 μg/mL G418 sulfate, 200 μg/mL hygromycin B and an antibiotic-antimycotic solution (Gibco®). rM1, rM3 and rM5 mAChR-CHO cells were grown in the same medium without hygromycin B[48]. CHO cells were cultured in a 150 mm-diameter cell culture-treated dishes (Corning®) at 37 °C and 5% CO2 until complete confluence.
(§2) CHO cells expressing rM1, rM3 and rM5 were plated at 4 × 10^4 cells per well, whereas rM2 and rM4 were plated at 6 × 10^4 cells per well, in standard growth media (as described previously under “cell culture”) in 96-well plates 24 hours before assay and were incubated overnight at 37 °C in 5% CO2. […] Cells were incubated for 45 minutes (37 °C, 5% CO2) for dye loading. […] AEME concentration-response curves were determined in single-add experiments. […]

Rat M4 mAChR = biological target: T2, Rat M4 mAChR (Rattus norvegicus, UniProt P08485); assay: calcium mobilization assay in CHO cells (Gqi5); assay type: cell-based; conditions: rat M4, 100 μM AEME on ACh curve
T2 construct: host or cells: CHO (CHO-K1) cells
T2 sequence (P08485 1-478): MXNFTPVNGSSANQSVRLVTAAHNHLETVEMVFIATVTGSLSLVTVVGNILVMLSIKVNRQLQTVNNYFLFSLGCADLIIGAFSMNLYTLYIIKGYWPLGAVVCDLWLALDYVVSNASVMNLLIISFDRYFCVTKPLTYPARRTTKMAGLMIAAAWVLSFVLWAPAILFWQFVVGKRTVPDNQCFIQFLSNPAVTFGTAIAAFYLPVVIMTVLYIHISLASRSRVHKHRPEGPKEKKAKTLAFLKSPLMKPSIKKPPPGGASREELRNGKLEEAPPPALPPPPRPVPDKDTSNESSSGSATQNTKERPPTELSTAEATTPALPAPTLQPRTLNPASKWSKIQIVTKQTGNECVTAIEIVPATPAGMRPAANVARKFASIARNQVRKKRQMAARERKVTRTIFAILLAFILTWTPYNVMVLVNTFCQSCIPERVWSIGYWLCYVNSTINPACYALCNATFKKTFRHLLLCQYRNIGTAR
Procedure: as §1, §2

[2] = biological target: muscarinic cholinergic receptors; conditions: [^3H]QNB, rat hippocampus; cited from earlier work

COC(=O)C1=CC[C@@H]2CC[C@H]1N2C [AEME, anhydroecgonine methyl ester]
effect on total [^3H]inositol phosphate [1]: concentration-dependent increase | concentration giving maximum inositol phosphate accumulation ([1]; 10 minutes): 10^−5 M | mechanism of action (Rat M2 mAChR): antagonized the effects of ACh | mechanism of action (Rat M4 mAChR): antagonized the effects of ACh | pKi [2]: 4.15 ± 0.15
